Measured values reported in ChEMBL document CHEMBL4613222 (Bioorg Med Chem, 2020).
Calls of active or inactive are those of the source. No cut-off for these calls is given here.

Tests used:
HCT-116 [1] = assay: Down regulation of CCND1 gene expression in human HCT116 cells at 9.5 uM in presence of 2 Gy irradiation by RT-PCR analysis; format: functional, cell-based
HCT-116 [2] = assay: Effect on CCND1 gene expression in human HCT116 cells at 9.5 uM in presence of 2 Gy irradiation by RT-PCR analysis; format: functional, cell-based
HCT-116 [3] = assay: Down regulation of NFKappaB1 gene expression in human HCT116 cells at 9.5 uM by RT-PCR analysis relative to control; format: functional
HCT-116 [4] = assay: Radiosensitizer activity in human HCT116 cells assessed as reduction in cell survival at 4.75 uM incubated for 48 hrs under 2 to 6 Gy irradiation and measured after 7 days by crystal violet staining based by clonogenic assay; format: functional
HCT-116 [5] = assay: Antiproliferative activity against human HCT116 cells assessed as reduction in cell viability after 48 hrs by MTT assay; format: functional, cell-based; conditions: HCT-116, 48 h
HCT-116 [6] = assay: Down regulation of NFKappaB1 gene expression in human HCT116 cells at 35 uM under 2 Gy irradiation by RT-PCR analysis; format: functional, cell-based

C[C@H]1[C@H](C)CC[C@]2(C(=O)O)CC[C@]3(C)C(=CC[C@@H]4[C@@]5(C)CC[C@H](O)C(C)(C)[C@@H]5CC[C@]43C)[C@H]12 [URSOLIC ACID]
Activity (HCT-116 [1]): Active | Activity (HCT-116 [2]): inactive | fold change (FC) (HCT-116 [3]): -7.05 | Activity (HCT-116 [4]): Active | IC50 (HCT-116 [5]): 19 µM | Activity (HCT-116 [6]): Active
